Results on 21 compounds are retold here after PMC4266796 (International Journal for Parasitology: Drugs and Drug …, 2014).

“Also recorded” adds a separate entry of the source. Counter-ions that a name gives are not always drawn. Like-named read-outs stand apart in the source and are kept apart here.

One data set is described as follows: in vitro. As to conditions: Aedes albopictus.
The subject of a further data set is Wolbachia. As to conditions: ref Hermans et al., 2001; cited from earlier work.
The subject of a further data set is L. sigmodontis. The data set can be described thus: In vivo L. sigmodontis screening assay, worm length. Details: species or system Litomosoides sigmodontis in BALB/c mice.
In data set [1] the test system is W. pipientis wAlbB in C6/36 (wAlbB) cells. The data set can be described thus: microbe, parasite or virus in culture. The format is cell-based, Wolbachia pipientis. The settings on record: for Dose response behaviour in titration series: 6 doses from 10 to 0.3 μM; for log reduction at 10 µM: Wolbachia pipientis, C6/36, 216 h, read-out: 16S log drop, 10 μM, 9 days, single agent screening.

In data set [2] the test system is Wolbachia of L. sigmodontis. The experiment in a line: animal or person. The format is in vivo, Wolbachia of Litomosoides sigmodontis in BALB/c mice. The settings on record: for log reduction at 25 mg/kg/day: ip, 240 h, read-out: wLs ftsz log drop in vivo.
The test system of another data set is C6/36 (wAlbB) cells. The settings on record: 10 μM, luminescence vs vehicle-treated control.
The subject of the next data set is O gutturosa Wolbachia. In kind it is cell-based, Wolbachia of Onchocerca gutturosa. The settings on record: for Reduction in Wolbachia (wsp:gst log drop from vehicle controls): 5 days; for Effect on Wolbachia load (in words): 12.5 to 0.195 μM.
Where [3] appears, read: reduced regimen, 25 MKD for 10 days.

For `Nc1nc(NC2CC2)c2ncn([C@H]3C=C[C@@H](CO)C3)c2n1` [Abacavir Sulfate], in “in vitro”, the cytotoxicity at 10 µM worked out at 0%.
With `O=C(O)c1cn(C2CC2)c2cc(N3CCNCC3)c(F)cc2c1=O` [Ciprofloxacin hydrochloride], the “Activity in other cell-based Wolbachia assays” value with Wolbachia is reported as “no activity”. For the same compound, the “Effect on worm length (in words)” value with L. sigmodontis (standard doses tested) is “did not reduce”. In “in vitro”, the cytotoxicity at 10 µM came out at 0%.
Consider `COc1cc(/C=C/C(=O)CC(=O)/C=C/c2ccc(O)c(OC)c2)ccc1O` [Curcumin], for which the “Dose response behaviour in titration series” value (shortened to “Dose response behaviour”) in data set [1] was “activity only at the highest concentration”. The same compound gave a cytotoxicity at 10 µM in the data set “in vitro” of 0%.
For `CC(=O)Oc1cccc2c1C(=O)c1c(OC(C)=O)cc(C(=O)O)cc1C2=O` [Diacerein], the cytotoxicity at 10 µM in the data set “in vitro” was determined as 0%.
As for `CCCCC(CC)COC(=O)CC(C(=O)OCC(CC)CCCC)S(=O)(=O)[O-].CCCCC(CC)COC(=O)CC(C(=O)OCC(CC)CCCC)S(=O)(=O)[O-].[Ca+2]` (centres unmarked) [Docusate Calcium], the “Ls length reduction in vivo (%)” value in the data set with L. sigmodontis (200 MKD IP for 14 days) was 20.0%. Besides, in data set [2] (200 MKD IP for 14 days), the “wLs ftsz log drop in vivo” value was found to be 1.0 log. The “Cytotoxicity (%)” value with C6/36 (wAlbB) cells worked out at 0%.
For `C[C@H]1c2cccc(O)c2C(=O)C2=C(O)[C@]3(O)C(=O)C(C(N)=O)=C(O)[C@@H](N(C)C)[C@@H]3[C@@H](O)[C@@H]21` [Doxycycline], the “Reduction in Wolbachia (wsp:gst log drop from vehicle controls)” value in the data set on O gutturosa Wolbachia (0.195 μM) is on record as 0.77 log; with O gutturosa Wolbachia (0.781 μM), 0.14 log; with O gutturosa Wolbachia (3.125 μM) it was 0.21 log; in the data set on O gutturosa Wolbachia (12.5 μM) it was 0.80 log. The “Effect on Wolbachia load (in words)” value in the data set with O gutturosa Wolbachia is given as “reduced the Wolbachia load”. In addition, the “16S log drop in vitro” value in data set [1] (doxycycline gold standard, 7 μM, 9 days) is 1.6 log. Moreover, the log reduction at 25 mg/kg/day in data set [2] came to 2.2. In “in vitro”, this compound gave a cytotoxicity at 7 µM of 0%.
On to `CCC1(C)CC(=O)NC1=O` (centres unmarked) [Ethosuximide], for which, in data set [1], the log reduction at 10 µM is ≥ 1.6.
The compound `CCOc1ccc2nc(S(N)(=O)=O)sc2c1` [Ethoxzolamide] had a cytotoxicity at 10 µM in “in vitro” of 19%.
Turning to `COc1ccc2c(c1)c(CC(=O)O)c(C)n2C(=O)c1ccc(Cl)cc1` [Indomethacin], the log reduction at 10 µM in data set [1] is ≥ 1.6. Also, the cytotoxicity at 10 µM in “in vitro” was 0%.
Regarding `NNC(=O)c1ccncc1` [Isoniazid], in “in vitro”, the cytotoxicity at 10 µM was 0.3%.
For `CO[C@@H]1[C@@H](O[C@@H]2O[C@H](C)[C@@H](O[C@H]3C[C@@](C)(O)[C@@H](OC(=O)CC(C)C)[C@H](C)O3)[C@H](N(C)C)[C@H]2O)[C@@H](CC=O)C[C@@H](C)[C@@H](O)/C=C/C=C/C[C@@H](C)OC(=O)C[C@H]1O` [Kitasamycin], the log reduction at 10 µM in data set [1] was ≥ 1.6.
In the case of `CCOC(=O)N1CCC(=C2c3ccc(Cl)cc3CCc3cccnc32)CC1` [Loratadine], the “Effect on worm length (in words)” value with L. sigmodontis (standard doses tested) is on record as “no effect”. The compound also showed a cytotoxicity at 10 µM in the data set “in vitro” of 20.7%.
On to `C=C1c2cccc(O)c2C(=O)C2=C(O)[C@]3(O)C(=O)C(C(N)=O)=C(O)[C@@H](N(C)C)[C@@H]3[C@@H](O)[C@H]12` [Methacycline hydrochloride], for which, in data set [1], the “Dose response behaviour” value was “active at all tested concentrations to the same extent” and the log reduction at 10 µM is ≥ 1.6. Besides, the cytotoxicity at 10 µM in “in vitro” was found to be 0%.
As to `CN(C)c1ccc(O)c2c1C[C@H]1C[C@H]3[C@H](N(C)C)C(O)=C(C(N)=O)C(=O)[C@@]3(O)C(O)=C1C2=O` [Minocycline], the “Effect on worm length (in words)” value with L. sigmodontis (standard doses tested) was “significantly reduced”. Also, the log reduction at 10 µM in data set [1] is ≥ 1.6. In data set [2], the log reduction at 25 mg/kg/day was determined as 3.78. The “Reduction in Wolbachia load compared with the same dose/regimen of doxycycline” value in data set [2] (methacycline 50 MKD, minocycline 25 MKD for 10 days, P < 0.05) is “significantly greater”. The “Activity in the L. sigmodontis mouse model (in words)” value (“Activity … (in words)” below) in data set [2] (mouse, in vivo) is “demonstrated activity”. Further, the “Effect on Wolbachia load (in words)” value in data set [2] (setting [3]) and in data set [2] (standard doses tested) was “significantly reduced” each time. Besides, the cytotoxicity at 10 µM in the data set “in vitro” came to 0%.
Take `COc1c(N2C[C@@H]3CCCN[C@@H]3C2)c(F)cc2c(=O)c(C(=O)O)cn(C3CC3)c12` [Moxifloxacin]: in the data set with O gutturosa Wolbachia, the “Effect on Wolbachia load (in words)” value is “greatly reduced the Wolbachia load at all concentrations tested”. Also, the “Activity … (in words)” value in data set [2] (levofloxacin and moxifloxacin: data not shown / unpublished observations) is on record as “active”.
Compound `CC1(C)NC(=O)N(c2ccc([N+](=O)[O-])c(C(F)(F)F)c2)C1=O` [Nilutamide] showed a cytotoxicity at 10 µM in “in vitro” of 0.01%.
For `NC[C@@H]1O[C@H](O[C@H]2[C@@H](O)[C@H](O[C@@H]3[C@@H](O)[C@H](N)C[C@H](N)[C@H]3O[C@H]3O[C@H](CO)[C@@H](O)[C@H](O)[C@H]3N)O[C@@H]2CO)[C@H](N)[C@@H](O)[C@@H]1O` [Paromomycin sulfate], in data set [1], the “Dose response behaviour” value is reported as “showed a dose response” and the log reduction at 10 µM is ≥ 1.6. For the same compound, the cytotoxicity at 10 µM in the data set “in vitro” was 0%.
Regarding `CO[C@H]1/C=C/O[C@@]2(C)Oc3c(C)c(O)c4c(O)c(c(/C=N/N5CCN(C6CCCC6)CC5)c(O)c4c3C2=O)NC(=O)/C(C)=C\C=C\[C@H](C)[C@H](O)[C@@H](C)[C@@H](O)[C@@H](C)[C@H](OC(C)=O)[C@@H]1C` [Rifapentine], the “Reduction in Wolbachia (wsp:gst log drop from vehicle controls)” value is given as 0.99 log in the data set on O gutturosa Wolbachia (0.195 μM), 0.78 log in the data set with O gutturosa Wolbachia (0.781 μM), 0.77 log in the data set on O gutturosa Wolbachia (3.125 μM) and 1.04 log in the data set on O gutturosa Wolbachia (12.5 μM). The “Effect on Wolbachia load (in words)” value in the data set on O gutturosa Wolbachia is on record as “greatly reduced the Wolbachia load at all concentrations tested”; in data set [2] (standard doses tested), “significantly reduced”. Further, the “Effect on worm length (in words)” value in the data set with L. sigmodontis (standard doses tested) is recorded as “significantly reduced”. Also, the log reduction at 10 µM in data set [1] was ≥ 1.6. Besides, the “Activity … (in words)” value in data set [2] (mouse, in vivo) is listed as “demonstrated activity”. In the data set “in vitro”, this compound returned a cytotoxicity at 10 µM of 20%.
In the case of `C[C@@H]1CN(c2c(F)c(N)c3c(=O)c(C(=O)O)cn(C4CC4)c3c2F)C[C@H](C)N1` [Sparfloxacin], the “Effect on worm length (in words)” value in the data set with L. sigmodontis (setting [3]) was “did not significantly affect”; in the data set on L. sigmodontis (standard doses tested) it was “significantly reduced”. Besides, in data set [2], the log reduction at 25 mg/kg/day was 0.6. Also, in data set [2] (mouse, in vivo), the “Activity … (in words)” value is listed as “demonstrated activity; also recorded: active”. For the same compound, the “Effect on Wolbachia load (in words)” value in data set [2] (setting [3]) is reported as “did not significantly affect”; in data set [2] (standard doses tested), “significantly reduced”. In the data set “in vitro”, this compound had a cytotoxicity at 10 µM of 0%.
For the compound `[H]/N=C(/N)NS(=O)(=O)c1ccc(N)cc1` [Sulfaguanidine], the “Dose response behaviour” value in data set [1] is recorded as “active at all tested concentrations to the same extent”.
In the case of `C[C@H]1COc2c(N3CCN(C)CC3)c(F)cc3c(=O)c(C(=O)O)cn1c23` [levofloxacin], in data set [2] (mouse, in vivo), the “Activity … (in words)” value is “inactive”.
